The source of these data is patent US11142529B2 (priority 2013, dated 2021).

What is called Ki is the dissociation constant of the complex between target and ligand, obtained from inhibition or displacement. High values mean a looser hold on the target, low ones a stronger hold on the target.

For data set [1], the system named is aged-impaired (AI) rats. Briefly: Morris water maze behavioral task (Example 109). It counts as in vivo, rat. The note with it: 100 μg ICV. How it is done:
The effects of 6,6 dimethyl-3-(3-hydroxypropyl)thio-1-(thiazol-2-yl)-6,7-dihydro-2-benzothiophen-4(5H)-one on the in vivo spatial memory retention of aged-impaired (AI) rats were assessed in a Morris water maze behavioral task. A water maze is a pool surrounded with a novel set of patterns relative to the maze.
Cognitively impaired aged rats were implanted unilaterally with a cannula into the lateral ventricle. Stereotaxic coordinates were 1.0 mm posterior to bregma, 1.5 mm lateral to midline, and 3.5 mm ventral to the skull surface. After about a week of recovery, the rats were pre-trained in a water maze for 2 days (6 trials per day) to locate a submerged escape platform hidden underneath the surface of the pool, in which the escape platform location varied from day to day. No intracerebroventricular (ICV) infusion was given during pre-training.
After pre-training, rats received ICV infusion of either 100 μg 6,6 dimethyl-3-(3-hydroxypropyl)thio-1-(thiazol-2-yl)-6,7-dihydro-2-benzothiophen-4(5H)-one (n=6) in 5 μl DMSO or vehicle DMSO (n=5) 40 min prior to water maze training and testing. Training consisted of 8 trials per day for 2 days where the hidden escape platform remained in the same location. Rats were given 60 seconds to locate the platform with a 60 seconds inter-trial interval. The rats were given a probe test (120 seconds) 24 hr after the end of training where the escape platform was removed. During the training, there were 4 blocks, where each block had 4 training trials.
During a test trial 24 hr after training, the escape platform was removed. The search/swim pattern of the rats was used to measure whether the rats remember where the escape platform was located during pre-trial training in order to test for the long-term memory of the rats. In this trial, “target annulus” is a designated area 1.5 times the size of the escape platform around the area where the platform was located during pre-trial training. “Opposite annulus” is a control area of the same size as the size of the target annulus, which is located opposite to the target annulus in the pool. If the rats had good long term memory, they would tend to search in the area surrounding the location where the platform was during the pre-trial training (i.e., the “target” annulus; and not the “opposite” annulus). “Time in annulus” is the amount of time in seconds that the rat spent in the target or opposite annulus area. “Number (#) of crossings” in annulus is the number of times the rat swam across the target or opposite annulus area.

Data set [2] deals with T1, α5β3γ2 GABAA receptors (Homo sapiens, UniProt P18507+P31644).
T1 construct: membranes
T1 sequence (P31644 32-462): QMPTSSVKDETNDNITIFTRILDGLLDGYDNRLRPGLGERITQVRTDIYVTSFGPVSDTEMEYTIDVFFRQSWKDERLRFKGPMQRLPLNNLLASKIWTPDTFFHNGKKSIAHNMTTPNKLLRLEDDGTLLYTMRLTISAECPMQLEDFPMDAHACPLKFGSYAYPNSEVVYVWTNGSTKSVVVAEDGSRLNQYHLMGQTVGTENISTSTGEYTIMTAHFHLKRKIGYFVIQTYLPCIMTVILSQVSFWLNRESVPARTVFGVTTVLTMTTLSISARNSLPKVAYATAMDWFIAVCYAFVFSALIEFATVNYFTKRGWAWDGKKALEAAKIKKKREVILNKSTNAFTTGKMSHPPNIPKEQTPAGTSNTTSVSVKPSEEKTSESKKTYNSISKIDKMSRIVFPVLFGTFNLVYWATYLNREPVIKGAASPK
T1 sequence (P28472 26-473 partner): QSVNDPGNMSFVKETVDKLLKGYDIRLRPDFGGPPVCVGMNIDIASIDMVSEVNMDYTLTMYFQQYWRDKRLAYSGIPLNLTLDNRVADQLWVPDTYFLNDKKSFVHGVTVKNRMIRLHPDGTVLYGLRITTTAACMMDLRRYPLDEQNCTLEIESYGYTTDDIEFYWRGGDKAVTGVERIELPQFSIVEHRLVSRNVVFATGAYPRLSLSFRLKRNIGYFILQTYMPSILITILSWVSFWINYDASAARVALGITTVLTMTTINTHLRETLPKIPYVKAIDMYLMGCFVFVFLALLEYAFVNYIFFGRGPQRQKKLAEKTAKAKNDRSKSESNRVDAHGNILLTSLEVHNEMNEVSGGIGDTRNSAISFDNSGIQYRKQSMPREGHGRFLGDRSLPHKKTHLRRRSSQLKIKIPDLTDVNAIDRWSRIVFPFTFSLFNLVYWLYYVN
T1 sequence (P18507 40-475): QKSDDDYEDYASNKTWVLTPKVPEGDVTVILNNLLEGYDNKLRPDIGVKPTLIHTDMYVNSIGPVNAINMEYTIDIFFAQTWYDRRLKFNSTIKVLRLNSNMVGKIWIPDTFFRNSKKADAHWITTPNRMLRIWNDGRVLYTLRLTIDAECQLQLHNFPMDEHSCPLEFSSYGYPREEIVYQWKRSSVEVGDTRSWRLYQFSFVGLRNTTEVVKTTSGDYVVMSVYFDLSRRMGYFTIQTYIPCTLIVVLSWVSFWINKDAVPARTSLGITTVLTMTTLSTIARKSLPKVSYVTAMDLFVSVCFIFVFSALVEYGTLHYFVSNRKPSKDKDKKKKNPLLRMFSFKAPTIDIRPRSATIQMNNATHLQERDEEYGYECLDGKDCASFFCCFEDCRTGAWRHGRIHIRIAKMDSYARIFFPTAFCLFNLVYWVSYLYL
The data set is described as follows: Binding activity of test compounds on GABAAR ([3H]Ro15-1788 inhibition, Ltk cell membranes). The protocol: The binding was performed on Ltk cells stably expressing GABAA receptors: α1β1γ2, α2β3γ2, α3β3γ2 and α5β3γ2 (provided by Merck Co., NJ, USA). Cells were seeded in 100 mm culture plates in DMEM/F12 medium containing 10% serum and antibiotics in 5% C02 and allowed to grow for 1-2 days. GABAAR expression was then induced by dexamethasone as follows: 0.5 μM for 1 day for α5 containing and 2 μM for 3 days for α1, α2 and α3 containing GABAARs. After induction, cells were collected by scraping into Dulbecco's Phosphate buffered saline (DPBS, pH 7.4, Invitrogen, Carlsbad, Calif., USA) and centrifuged at 150×g for 10 min. The pellet was washed twice by re-suspension and centrifugation. The cell pellets from at least 5 different preps were combined, suspended in the binding assay buffer (50 mM KH2PO4; 1 mM EDTA; 0.2 M KCl, pH 7.4) and membranes prepared by sonication (3-5 times, 30 sec) using Branson Sonifier 150 (G.Heinmann, Germany). Protein content was determined using BCA assay (Bio-Rad Labs, Reinach, Switzerland) with Bovine Serum Albumin (Sigma Aldrich, St. Louis, Mo., USA) as the standard. Aliquots were prepared and stored at −20° C. for further use in binding assays.
Saturation binding curves were obtained by incubating membranes with increasing concentrations (0.01-8 nM) of [^3H]Ro15-1788 (Flumazepil, 75-85 Ci/mmol, PerkinElmer, MA, USA), with nonspecific binding measured in the presence of 10 μM diazepam.
All binding assays were performed for 1 h at 4° C. in assay buffer. The total assay volume was 0.5 ml containing 0.2 mg/ml protein for α5 and 0.4 mg/ml for α1, α2, and α3 containing GABAAR membranes. Incubations were terminated by filtration through GF/B filters using a 24-Cell Harvestor (Brandel, Gaithersburg, Md., USA) followed by 3 washes with ice-cold assay buffer. Filters were transferred to scintillation vials, 5 ml scintillation liquid added, vortex-mixed and kept in dark. Next day, radioactivity was obtained using a scintillation counter (Beckman Coulter, Brea, Calif., USA). All assays were performed in triplicate.
Saturation and inhibition curves were obtained using GraphPad Prism software (GraphPad Software, Inc., CA, USA).

Data set [3] has as its target T2, GABAA receptors (α5β2γ2) (Homo sapiens, UniProt P18507+P31644).
T2 construct: expressed in transfected cells; host or cells: oocytes injected with a mix of alpha, beta and gamma cDNA (1:1:10 by weight)
Briefly: Positive allosteric modulator activity, potentiation of EC20 GABA current in oocytes. It is filed as cell-based. The note with it: read-out: GABA α5 functional potentiation. The protocol: On day 1, 1 ng/32 nL of GABAA […] cDNA was injected into one oocyte. Test starts on day 2. The cDNA injected to the oocytes was a mix of alpha, beta and gamma, their ratio is 1:1:10 (by weight) and the total weight of the mixed 3 subunits to be injected in one oocyte was 1 ng in 32 nl volume. The injected oocytes can also be tested on day 3. In such case, the cDNA amount injected to the oocytes should be reduced by 20%.
1). 8 oocytes were placed in 8 chambers of OpusXpress and superfused with Modified Barth's Saline (MBS) at 3 mL/min. Glass electrodes back-filled with 3M KCl (0.5-3 megaohms) were used.
3). […] Oocytes were washed with MBS for 5-10 min.
2). […] Divide Itest by IGABA to obtain potentiation (%).
3). Discard all tested oocytes, new oocytes were used and the above steps 1) and 2) were repeated to test second concentration of the same compound. Each oocyte was used for only one concentration test for a single test compound. The steps were repeated for other test compounds.

Data set [4] addresses T3, GABAAα5 receptor (Rattus norvegicus, UniProt P18508+P19969).
T3 construct: occupancy in the hippocampus (a region of high GABAAα5 receptor density); from tissue; host or cells: rat brain in vivo; hippocampus versus cerebellum
Briefly: GABAA α5 receptor occupancy with Ro 15-4513 tracer (Example 107B). It counts as in vivo, Long Evans rats. An excerpt:
Food and water were available ad libitum.

In data set [5] the test system is MAM-treated rats. The note with it: cited from earlier work.
[6] abbreviates: probe test 24 hr after training.
The mark [7] stands for this setting: vehicle then tracer 1 μg/kg i.v.

T2 sequence (P31644 32-462): as the sequence (P31644 32-462) above
T2 sequence (P47870 25-512 partner limits assumed): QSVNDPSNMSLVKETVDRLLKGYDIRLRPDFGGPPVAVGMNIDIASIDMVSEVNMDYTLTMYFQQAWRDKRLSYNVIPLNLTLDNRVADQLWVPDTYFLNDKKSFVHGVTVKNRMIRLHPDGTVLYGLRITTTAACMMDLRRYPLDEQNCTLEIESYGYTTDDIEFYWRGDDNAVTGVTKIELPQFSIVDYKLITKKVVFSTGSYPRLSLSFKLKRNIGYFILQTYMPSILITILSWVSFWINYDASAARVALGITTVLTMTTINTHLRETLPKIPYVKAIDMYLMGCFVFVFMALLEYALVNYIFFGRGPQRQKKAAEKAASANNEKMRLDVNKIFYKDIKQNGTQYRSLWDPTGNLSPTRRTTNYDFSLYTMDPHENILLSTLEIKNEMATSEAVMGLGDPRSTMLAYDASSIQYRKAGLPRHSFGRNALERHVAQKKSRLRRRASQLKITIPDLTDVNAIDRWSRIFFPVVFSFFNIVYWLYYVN
T2 sequence (P18507 40-475): as the sequence (P18507 40-475) above
T3 sequence (P19969 32-464 limits assumed): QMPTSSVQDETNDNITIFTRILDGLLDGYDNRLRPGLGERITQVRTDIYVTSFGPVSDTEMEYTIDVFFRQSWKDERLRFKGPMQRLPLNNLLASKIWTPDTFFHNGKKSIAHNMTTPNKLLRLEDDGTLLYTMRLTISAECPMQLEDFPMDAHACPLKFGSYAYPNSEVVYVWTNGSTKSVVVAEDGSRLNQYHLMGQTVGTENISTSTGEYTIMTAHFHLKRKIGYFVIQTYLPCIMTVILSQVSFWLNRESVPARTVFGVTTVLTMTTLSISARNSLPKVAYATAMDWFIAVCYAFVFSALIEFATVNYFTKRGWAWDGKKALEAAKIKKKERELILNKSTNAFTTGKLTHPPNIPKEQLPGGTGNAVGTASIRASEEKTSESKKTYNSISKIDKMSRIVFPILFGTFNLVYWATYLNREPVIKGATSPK
T3 sequence (P18508 39-466): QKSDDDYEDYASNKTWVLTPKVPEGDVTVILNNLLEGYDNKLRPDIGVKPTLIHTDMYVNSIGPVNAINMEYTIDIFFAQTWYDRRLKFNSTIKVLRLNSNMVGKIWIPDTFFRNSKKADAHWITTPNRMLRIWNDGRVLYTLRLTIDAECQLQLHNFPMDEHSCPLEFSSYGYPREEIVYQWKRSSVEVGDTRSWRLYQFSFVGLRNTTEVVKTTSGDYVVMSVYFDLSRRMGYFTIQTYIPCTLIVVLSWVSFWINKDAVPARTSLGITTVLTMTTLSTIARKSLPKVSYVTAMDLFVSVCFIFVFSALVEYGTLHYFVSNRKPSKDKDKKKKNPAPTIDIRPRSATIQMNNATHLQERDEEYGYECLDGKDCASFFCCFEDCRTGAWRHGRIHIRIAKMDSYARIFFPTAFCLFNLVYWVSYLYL

Regarding `CC1(C)CC(=O)c2c(SCCCO)sc(-c3nccs3)c2C1` [6,6 dimethyl-3-(3-hydroxypropyl)thio-1-(thiazol-2-yl)-6,7-dihydro-2-benzothiophen-4(5H)-one], in data set [1], the “learning of the water maze task” value was “improved the learning” and the “long-term memory in the water maze task” value is given as “improved the long-term memory”. Further, in data set [1] (setting [6]), the “number of crossings of target annulus compared to opposite annulus” value was “more often” and the “time in target annulus compared to opposite annulus” value is listed as “spent significantly more time in the target annulus”. Also, the “time to find the escape platform (escape latency)” value in data set [1] (training block 1) was “about 24 seconds”. Besides, in data set [1] (training block 4), the “time to find the escape platform (escape latency)” value is “about 9.6 seconds”.

In data set [2], `COCc1nnc2n1Cc1c(-c3nc(C(C)C)no3)ncn1-c1ccc(OC)cc1-2` [Compound 130] displayed a Ki of less than 99 nM. Moreover, the activation at 0.1 µM in data set [3] was in the range of 20 to 49%.

In data set [2], `Cc1nnn2c1Cc1c(-c3nc(C(C)C)no3)ncn1-c1ccccc1-2` [Compound 132] displayed a Ki of less than 99 nM. For the same molecule, in data set [3], the activation at 0.1 µM was in the range of 20 to 49%.

In turn, `CCOC(=O)c1ncn2c1Cn1c(COc3ccccc3)nnc1-c1cc(F)ccc1-2` [Compound 137] gave a Ki in data set [2] of less than 99 nM. Also, the activation at 0.1 µM in data set [3] was 20 to 49%.

Take `Cc1nc(-c2ncn3c2Cc2c(C)nnn2-c2cc(F)ccc2-3)no1` [Compound 145]: the Ki in data set [2] is less than 99 nM. Further, the activation at 0.1 µM in data set [3] is more than 50%.

Turning to `CC(C)c1nc(-c2ncn3c2Cn2c(COc4ccccc4)nnc2-c2cc(F)ccc2-3)no1` [Compound 147], the Ki in data set [2] was less than 99 nM. For the same molecule, in data set [3], the activation at 0.1 µM lay in the range of 20 to 49%.

As for `Cc1nc(-c2ncn3c2Cn2c(COc4ccccc4)nnc2-c2cc(F)ccc2-3)no1` [Compound 148], the Ki in data set [2] was less than 99 nM. The activation at 0.1 µM in data set [3] was 20 to 49%.

Turning to `Cc1nnn2c1Cc1c(-c3noc(C(C)C)n3)ncn1-c1ccc(F)cc1-2` [Compound 149], the Ki in data set [2] is less than 99 nM. In addition, in data set [3], the activation at 0.1 µM was more than 50%.

Consider `Cc1nnn2c1Cc1c(C(=O)OC(C)C)ncn1-c1ccccc1-2` [Compound 153], for which, in data set [2], the Ki is less than 99 nM. Moreover, the activation at 0.1 µM in data set [3] lay in the range of 20 to 49%.

For `CCc1nc(-c2ncn3c2Cc2c(C)nnn2-c2cc(F)ccc2-3)no1` [Compound 155], in data set [2], the Ki is less than 99 nM. In addition, the activation at 0.1 µM in data set [3] was 20 to 49%.

In data set [2], `CCc1nc(-c2ncn3c2Cn2c(COc4ccccc4)nnc2-c2cc(F)ccc2-3)no1` [Compound 158] registered a Ki of less than 99 nM. For the same molecule, the activation at 0.1 µM in data set [3] lay within 20 to 49%.

`Cc1nnn2c1Cc1c(-c3noc(C(C)(C)C)n3)ncn1-c1ccc(F)cc1-2` [Compound 160] registered a Ki in data set [2] of less than 99 nM. Further, the activation at 0.1 µM in data set [3] was more than 50%.

The molecule `COc1ccc2c(c1)-c1nnc(COc3ccccc3)n1Cc1c(-c3noc(C)n3)ncn1-2` [Compound 162] registered a Ki in data set [2] of less than 99 nM. Further, in data set [3], the activation at 0.1 µM fell in the range of 20 to 49%.

Molecule `COc1ccc2c(c1)-c1nnc(COc3ccc(F)cc3)n1Cc1c(-c3noc(C)n3)ncn1-2` [Compound 163] showed a Ki in data set [2] of less than 99 nM. Further, the activation at 0.1 µM in data set [3] was in the range of 20 to 49%.

With `COc1ccc2c(c1)-c1nnc(COc3ccccc3)n1Cc1c(-c3noc(C(C)C)n3)ncn1-2` [Compound 171], the Ki in data set [2] was less than 99 nM. Further, in data set [3], the activation at 0.1 µM is more than 50%.

In data set [2], `COc1ccc2c(c1)-c1nnc(COc3ccc(F)cc3)n1Cc1c(-c3noc(C(C)C)n3)ncn1-2` [Compound 172] returned a Ki of less than 99 nM. The activation at 0.1 µM in data set [3] is more than 50%.

As for `CCOCc1nnc2n1Cc1c(-c3noc(C(C)C)n3)ncn1-c1ccc(OC)cc1-2` [Compound 173], the Ki in data set [2] is less than 99 nM. In addition, the activation at 0.1 µM in data set [3] was more than 50%.

For the molecule `COc1ccc2c(c1)-c1nnc(COc3ccccc3F)n1Cc1c(-c3noc(C(C)C)n3)ncn1-2` [Compound 174], in data set [2], the Ki is less than 99 nM. The activation at 0.1 µM in data set [3] was more than 50%.

Regarding `COc1ccc2c(c1)-c1nnc(COc3ccccc3Cl)n1Cc1c(-c3noc(C(C)C)n3)ncn1-2` [Compound 175], the inhibition constant (Ki) in data set [2] was less than 99 nM. In data set [3], the activation at 0.1 µM fell in the range of 20 to 49%.

Regarding `COc1ccc2c(c1)-c1nnc(COc3cccnc3)n1Cc1c(-c3noc(C(C)C)n3)ncn1-2` [Compound 176], the Ki in data set [2] was less than 99 nM. The activation at 0.1 µM in data set [3] was more than 50%.

The molecule `COc1ccc2c(c1)-c1nnc(COc3cccc4ccccc34)n1Cc1c(-c3noc(C(C)C)n3)ncn1-2` [Compound 177] returned a Ki in data set [2] of less than 99 nM. Also, in data set [3], the activation at 0.1 µM is more than 50%.

For the molecule `COc1ccc2c(c1)-c1nnc(COC3CCCC3)n1Cc1c(-c3noc(C(C)C)n3)ncn1-2` [Compound 178], the inhibitory constant (Ki) in data set [2] is less than 99 nM. Also, the activation at 0.1 µM in data set [3] is more than 50%.

Molecule `COc1ccc2c(c1)-c1nnc(COc3cccc(F)c3)n1Cc1c(-c3noc(C(C)C)n3)ncn1-2` [Compound 179] displayed an inhibition constant Ki in data set [2] of less than 99 nM. Besides, in data set [3], the activation at 0.1 µM was more than 50%.

With `CCOC(=O)c1ncn2c1CN(C)C(=O)c1cc(N=[N+]=[N-])ccc1-2` [Ro 15-4513], the “Ro 15-4513 level in hippocampus compared with cerebellum” value in data set [4] (tracer 1 μg/kg i.v.) is recorded as more than 5 fold. In addition, in data set [4] (setting [7]), the “level of Ro 15-4513 in cerebellum” value is 0.36 ± 0.02 ng/g and the “level of Ro 15-4513 in hippocampus” value is 1.93 ± 0.05 ng/g.

As to `C#Cc1ccc2c(c1)C(c1ccccc1F)=N[C@H](C)c1c(C(=O)OCC)ncn1-2` [SH-053-2′F—R—CH3], in data set [5] (rat, in vivo), the “increased locomotor response to amphetamine in MAM-treated rats” value is “is reduced”. Moreover, the “cortical-evoked responses of HPC neurons” value in data set [5] (saline-treated and MAM-treated animals) is “diminished cortical-evoked responses”.
